Data from the supplement of paper PMC11208160.

experiment: recombinant UMI read abundance after kanamycin selection (control-corrected) (log10(CPM+1)); higher = more efficient recombination; extreme values may be limits of the assay; sequences stand for … in AGTGCAGAGAAAATCGGCCAGTTTTCTCTGCCTGCAGTCCGCATGCCGTGGGACCCCTTGGGTTCTAACCTGTTGCCTAGATTTATGCAGCGGACTGCCTTTCTCCCAAAGTGATAAACCGG…AGGTTGGTTTCACT; site = the 11-nt donor
Method: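 Pooled E. coli donor-specificity screen for the IS621 bridge recombinase. Each library member carries a reprogrammed 11-nt donor and a full-length LE bridge RNA expressed in cis from the natural promoter, with a paired donor-binding loop (8-nt LDG + 4-nt RDG) and a target-binding loop fixed to T5. It is co-electroporated with a T5 target plasmid; recombinase is induced with 0.07 mM IPTG and recombinants are selected on kanamycin. UMIs are counted as CPM, averaged over two biological replicates and corrected by the unselected control. Molecule = full bridge RNA written as DNA, built from the T5 scaffold: LDG = donor specificity nt 1-8, RDG = reverse complement of nt 8-11.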
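Note: IS621 bridge recombinase in Escherichia coli cells against a fixed T5 target plasmid.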

Row | Sequence | recombinant UMI read abundance (log10)
1 | ACAGTATCATGGACCGGTTTTCCCGGTAATCCGTATTTGCA (site AGATTATCTTG) | 1.58
2 | ACAGTATCATGGACCGGTTTTCCCGGTAATCCGTATTTGCA (site AGTGTATCTTG) | 1.45
3 | ACAGTATCATGGACCGGTTTTCCCGGTAATCCGTATTTGCA (site ATACTATCTTG) | 1.12
4 | ACAGTATCATGGACCGGTTTTCCCGGTAATCCGTATTTGCA (site ATAGCATCTTG) | 1.83
5 | ACAGTATCATGGACCGGTTTTCCCGGTAATCCGTATTTGCA (site ATAGTAGCTTG) | 0.354
6 | ACAGTATCATGGACCGGTTTTCCCGGTAATCCGTATTTGCA (site ATAGTATCTCG) | 0.0911
7 | ACAGTATCATGGACCGGTTTTCCCGGTAATCCGTATTTGCA (site ATAGTATCTTA) | 0
8 | ACAGTATCATGGACCGGTTTTCCCGGTAATCCGTATTTGCA (site ATAGTATCTTG) | 2.04
9 | ACAGTATCATGGACCGGTTTTCCCGGTAATCCGTATTTGCA (site ATAGTTTCTTG) | 0.0207
10 | ACAGTATCATGGACCGGTTTTCCCGGTAATCCGTATTTGCA (site ATGGTATCTTG) | 1.7
11 | ACAGTATCATGGACCGGTTTTCCCGGTAATCCGTATTTGCA (site CCAGGATCTTG) | 0.811
12 | ACAGTATCATGGACCGGTTTTCCCGGTAATCCGTATTTGCA (site CCAGTACCTTG) | 0.0123
13 | ACAGTATCATGGACCGGTTTTCCCGGTAATCCGTATTTGCA (site CCAGTATCTGG) | 0.613
14 | ACAGTATCATGGACCGGTTTTCCCGGTAATCCGTATTTGCA (site CCAGTATCTTG) | 2.71
15 | ACAGTATCATGGACCGGTTTTCCCGGTAATCCGTATTTGCA (site CCAGTATCTTT) | 0.00394
16 | ACAGTATCATGGACCGGTTTTCCCGGTAATCCGTATTTGCA (site CCAGTGTCTTG) | 1.8
17 | ACAGTATCATGGACCGGTTTTCCCGGTAATCCGTATTTGCA (site CCATTATCTTG) | 2.31
18 | ACAGTATCATGGACCGGTTTTCCCGGTAATCCGTATTTGCA (site CCTGTATCTTG) | 2.37
19 | ACAGTATCATGGACCGGTTTTCCCGGTAATCCGTATTTGCA (site CGAGTATCTTG) | 1.36
20 | ACAGTATCATGGACCGGTTTTCCCGGTAATCCGTATTTGCA (site GAAGTATCTTG) | 2.82
21 | ACAGTATCATGGACCGGTTTTCCCGGTAATCCGTATTTGCA (site GCAATATCTTG) | 1.63
22 | ACAGTATCATGGACCGGTTTTCCCGGTAATCCGTATTTGCA (site GCAGAATCTTG) | 1.47
23 | ACAGTATCATGGACCGGTTTTCCCGGTAATCCGTATTTGCA (site GCAGTAACTTG) | 0
24 | ACAGTATCATGGACCGGTTTTCCCGGTAATCCGTATTTGCA (site GCAGTATCTAG) | 0.0509

Row | Sequence | recombinant UMI read abundance (log10)
25 | ACAGTATCATGGACCGGTTTTCCCGGTAATCCGTATTTGCA (site GCAGTATCTTC) | 0.00944
26 | ACAGTATCATGGACCGGTTTTCCCGGTAATCCGTATTTGCA (site GCAGTATCTTG) | 2.41
27 | ACAGTATCATGGACCGGTTTTCCCGGTAATCCGTATTTGCA (site GCAGTCTCTTG) | 0.292
28 | ACAGTATCATGGACCGGTTTTCCCGGTAATCCGTATTTGCA (site GCCGTATCTTG) | 1.88
29 | ACAGTATCATGGACCGGTTTTCCCGGTAATCCGTATTTGCA (site TCACTATCTTG) | 0.822
30 | ACAGTATCATGGACCGGTTTTCCCGGTAATCCGTATTTGCA (site TCAGCATCTTG) | 2.37
31 | ACAGTATCATGGACCGGTTTTCCCGGTAATCCGTATTTGCA (site TCAGTAGCTTG) | 0.0987
32 | ACAGTATCATGGACCGGTTTTCCCGGTAATCCGTATTTGCA (site TCAGTATCTCG) | 0.00474
33 | ACAGTATCATGGACCGGTTTTCCCGGTAATCCGTATTTGCA (site TCAGTATCTTA) | 0
34 | ACAGTATCATGGACCGGTTTTCCCGGTAATCCGTATTTGCA (site TCAGTATCTTG) | 2.54
35 | ACAGTATCATGGACCGGTTTTCCCGGTAATCCGTATTTGCA (site TCAGTTTCTTG) | 1.26
36 | ACAGTATCATGGACCGGTTTTCCCGGTAATCCGTATTTGCA (site TCGGTATCTTG) | 0.0345
37 | ACAGTATCATGGACCGGTTTTCCCGGTAATCCGTATTTGCA (site TTAGTATCTTG) | 2.66
38 | ACAGTATCATGGACCGGTTTTCCCGGTAATCCGTATTTGGT (site ACAGTATCTAC) | 2.61
39 | ACAGTATCATGGACCGGTTTTCCCGGTAATCCGTATTTGGT (site ACAGTATCTTG) | 0.731
40 | ACAGTCACATGGACCGGTTTTCCCGGTAATCCGTATTTGCA (site ACAGTATCTTG) | 1.84
41 | ACAGTCACATGGACCGGTTTTCCCGGTAATCCGTATTTGCA (site ACAGTCACTTG) | 2.58
42 | ACAGTCTCATGGACCGGTTTTCCCGGTAATCCGTATTTGCA (site ACAGTATCTTG) | 2.26
43 | ACAGTCTCATGGACCGGTTTTCCCGGTAATCCGTATTTGCA (site ACAGTCTCTTG) | 3.22
44 | ACAGTCTCATGGACCGGTTTTCCCGGTAATCCGTATTTGCA (site ACAGTGTCTTG) | 2.28
45 | ACAGTCTCATGGACCGGTTTTCCCGGTAATCCGTATTTGCA (site ACAGTTTCTTG) | 0.155
46 | ACAGTCTCATGGACCGGTTTTCCCGGTAATCCGTATTTGCT (site ACAGTATCTTG) | 0
47 | ACAGTCTCATGGACCGGTTTTCCCGGTAATCCGTATTTGCT (site ACAGTCTCTAG) | 2.94
48 | ACAGTGCCATGGACCGGTTTTCCCGGTAATCCGTATTTGAG (site ACAGTGCCTCT) | 0.285

Row | Sequence | recombinant UMI read abundance (log10)
49 | ACAGTGCCATGGACCGGTTTTCCCGGTAATCCGTATTTGCA (site ACAGTATCTTG) | 0.852
50 | ACAGTGCCATGGACCGGTTTTCCCGGTAATCCGTATTTGCA (site ACAGTGCCTTG) | 1.38
51 | ACAGTGTCATGGACCGGTTTTCCCGGTAATCCGTATTTGCA (site ACAGTATCTTG) | 3.35
52 | ACAGTGTCATGGACCGGTTTTCCCGGTAATCCGTATTTGCA (site ACAGTCTCTTG) | 2
53 | ACAGTGTCATGGACCGGTTTTCCCGGTAATCCGTATTTGCA (site ACAGTGTCTTG) | 3.29
54 | ACAGTGTCATGGACCGGTTTTCCCGGTAATCCGTATTTGCA (site ACAGTTTCTTG) | 0.818
55 | ACAGTTTCATGGACCGGTTTTCCCGGTAATCCGTATTTGCG (site ACAGTATCTTG) | 0
56 | ACAGTTTCATGGACCGGTTTTCCCGGTAATCCGTATTTGCG (site ACAGTTTCTCG) | 2.64
57 | ACATACACATGGACCGGTTTTCCCGGTAATCCGTATTTGAG (site ACATACACTCT) | 1.79
58 | ACATACTCATGGACCGGTTTTCCCGGTAATCCGTATTTGCA (site ACATACTCTTG) | 2.8
59 | ACATACTCATGGACCGGTTTTCCCGGTAATCCGTATTTGCA (site CCATACTCTTG) | 2.69
60 | ACATACTCATGGACCGGTTTTCCCGGTAATCCGTATTTGCA (site GCATACTCTTG) | 2.66
61 | ACATACTCATGGACCGGTTTTCCCGGTAATCCGTATTTGCA (site TCATACTCTTG) | 2.8
62 | ACATCTACATGGACCGGTTTTCCCGGTAATCCGTATTTGTC (site ACATCTACTAA) | 0.0236
63 | ACATCTACATGGACCGGTTTTCCCGGTAATCCGTATTTGTC (site ACATCTACTCA) | 0.0109
64 | ACATCTACATGGACCGGTTTTCCCGGTAATCCGTATTTGTC (site ACATCTACTGA) | 0
65 | ACATCTACATGGACCGGTTTTCCCGGTAATCCGTATTTGTC (site ACATCTACTTA) | 0.0124
66 | ACATCTACATGGACCGGTTTTCCCGGTAATCCGTATTTGTT (site ACATCTACTAA) | 0.142
67 | ACATCTACATGGACCGGTTTTCCCGGTAATCCGTATTTGTT (site ACATCTACTCA) | 0.0105
68 | ACATCTACATGGACCGGTTTTCCCGGTAATCCGTATTTGTT (site ACATCTACTGA) | 0
69 | ACATCTACATGGACCGGTTTTCCCGGTAATCCGTATTTGTT (site ACATCTACTTA) | 0.0357
70 | ACATGCACATGGACCGGTTTTCCCGGTAATCCGTATTTGTC (site ACATGCACTGA) | 2.06
71 | ACATGCGCATGGACCGGTTTTCCCGGTAATCCGTATTTGAT (site ACATGCGCTAT) | 2.22
72 | ACATGTACATGGACCGGTTTTCCCGGTAATCCGTATTTGTG (site ACATATACTCA) | 0.616
